Results taken from the NIST ThermoML archive (doi:10.1021/acs.jced.7b00201).

Experiment: xn = mol fraction of the nth substance listed
Details: 100 kPa, Liquid; for viscosity: Falling or rolling sphere viscometry; for mass density: Vibrating tube method

OCC1CC1 [cyclopropylmethanol] + CCCCCCCCCCCC
Details	mass density [kg/m3]	viscosity [mPa·s]
293.15 K, x1 = 0.1039	–	1.484
293.15 K, x1 = 0.1135	754.8	–
293.15 K, x1 = 0.2032	–	1.521
293.15 K, x1 = 0.2127	761.38	–
293.15 K, x1 = 0.3022	–	1.605
293.15 K, x1 = 0.3059	768.71	–
293.15 K, x1 = 0.3804	775.49	–
293.15 K, x1 = 0.3997	–	1.683
293.15 K, x1 = 0.4993	–	1.884
293.15 K, x1 = 0.5067	789.46	–
293.15 K, x1 = 0.5994	–	2.084
293.15 K, x1 = 0.6019	802.62	–
293.15 K, x1 = 0.7	–	2.335
293.15 K, x1 = 0.7011	819.64	–
293.15 K, x1 = 0.7921	839.53	–
293.15 K, x1 = 0.797	–	2.671
293.15 K, x1 = 0.8991	870.68	–
293.15 K, x1 = 0.9004	–	3.205
293.15 K, x1 = 1	912.99	4.029
298.15 K, x1 = 0.1039	–	1.354
298.15 K, x1 = 0.1135	751.08	–
298.15 K, x1 = 0.2032	–	1.382
298.15 K, x1 = 0.2127	757.63	–
298.15 K, x1 = 0.3022	–	1.455
298.15 K, x1 = 0.3059	764.92	–
298.15 K, x1 = 0.3804	771.68	–
298.15 K, x1 = 0.3997	–	1.52
298.15 K, x1 = 0.4993	–	1.688
298.15 K, x1 = 0.5067	785.59	–
298.15 K, x1 = 0.5994	–	1.854
298.15 K, x1 = 0.6019	798.72	–
298.15 K, x1 = 0.7	–	2.068
298.15 K, x1 = 0.7011	815.7	–
298.15 K, x1 = 0.7921	835.57	–
298.15 K, x1 = 0.797	–	2.35
298.15 K, x1 = 0.8991	866.69	–
298.15 K, x1 = 0.9004	–	2.801
298.15 K, x1 = 1	908.94	3.485
303.15 K, x1 = 0.1039	–	1.241
303.15 K, x1 = 0.1135	747.35	–
303.15 K, x1 = 0.2032	–	1.276
303.15 K, x1 = 0.2127	753.86	–
303.15 K, x1 = 0.3022	–	1.325
303.15 K, x1 = 0.3059	761.1	–
303.15 K, x1 = 0.3804	767.83	–
303.15 K, x1 = 0.3997	–	1.38
303.15 K, x1 = 0.4993	–	1.521
303.15 K, x1 = 0.5067	781.69	–
303.15 K, x1 = 0.5994	–	1.662
303.15 K, x1 = 0.6019	794.79	–
303.15 K, x1 = 0.7	–	1.842
303.15 K, x1 = 0.7011	811.73	–
303.15 K, x1 = 0.7921	831.56	–
303.15 K, x1 = 0.797	–	2.081
303.15 K, x1 = 0.8991	862.66	–
303.15 K, x1 = 0.9004	–	2.463
303.15 K, x1 = 1	904.85	3.037
308.15 K, x1 = 0.1039	–	1.142
308.15 K, x1 = 0.1135	743.6	–
308.15 K, x1 = 0.2032	–	1.171
308.15 K, x1 = 0.2127	750.06	–
308.15 K, x1 = 0.3022	–	1.213
308.15 K, x1 = 0.3059	757.26	–
308.15 K, x1 = 0.3804	763.96	–
308.15 K, x1 = 0.3997	–	1.258
308.15 K, x1 = 0.4993	–	1.378
308.15 K, x1 = 0.5067	777.76	–
308.15 K, x1 = 0.5994	–	1.497
308.15 K, x1 = 0.6019	790.82	–
308.15 K, x1 = 0.7	–	1.65
308.15 K, x1 = 0.7011	807.72	–
308.15 K, x1 = 0.7921	827.52	–
308.15 K, x1 = 0.797	–	1.853
308.15 K, x1 = 0.8991	858.59	–
308.15 K, x1 = 0.9004	–	2.176
308.15 K, x1 = 1	900.74	2.661
313.15 K, x1 = 0.1039	–	1.055
313.15 K, x1 = 0.1135	739.84	–
313.15 K, x1 = 0.2032	–	1.079
313.15 K, x1 = 0.2127	746.24	–
313.15 K, x1 = 0.3022	–	1.114
313.15 K, x1 = 0.3059	753.4	–
313.15 K, x1 = 0.3804	760.06	–
313.15 K, x1 = 0.3997	–	1.153
313.15 K, x1 = 0.4993	–	1.254
313.15 K, x1 = 0.5067	773.81	–
313.15 K, x1 = 0.5994	–	1.355
313.15 K, x1 = 0.6019	786.82	–
313.15 K, x1 = 0.7	–	1.485
313.15 K, x1 = 0.7011	803.68	–
313.15 K, x1 = 0.7921	823.45	–
313.15 K, x1 = 0.797	–	1.658
313.15 K, x1 = 0.8991	854.48	–
313.15 K, x1 = 0.9004	–	1.933
313.15 K, x1 = 1	896.58	2.344
318.15 K, x1 = 0.1039	–	0.977
318.15 K, x1 = 0.2032	–	0.998
318.15 K, x1 = 0.3022	–	1.028
318.15 K, x1 = 0.3997	–	1.06
318.15 K, x1 = 0.4993	–	1.146
318.15 K, x1 = 0.5994	–	1.232
318.15 K, x1 = 0.7	–	1.343
318.15 K, x1 = 0.797	–	1.491
318.15 K, x1 = 0.9004	–	1.725
318.15 K, x1 = 1	–	2.074
